Legend:
Type in all cases: physicochemical
[1] = absorption spectra measured in solution (λmax, ε, shift Δλmax after thermal cyclization); parameters: λmax: unit: nm (local absorption maximum, 350–470 nm range); Δλmax: unit: nm; negative = hypsochromic shift; details: for Δλmax: shift after thermal cyclization; for λmax: solvent not given; for absorption shift after cyclization Δλmax: after thermal cyclization, negative = hypsochromic
From the text: Preference is given to dyes in which the shift in the absorption maximum induced by thermal cyclization, Δλmax, is 25 nm or more, preferably ≧35 nm, in particular ≧45 nm. If a preferably hypsochromic shift occurs, then Δλmax is negative. For the purposes of the invention, the absorption maximum is the local maximum in the range from 350 to 470 nm; it is not necessarily the absolute maximum in the UV/VIS spectrum in the range from 190 to 800 nm.
The light-absorbent compounds preferably have a molar extinction coefficient ε of >20 000 l/mol cm, preferably >30 000 l/mol cm, particularly preferably >40 000 l/mol cm, very particularly preferably >50 000 l/mol cm, at the absorption maximum λmax.
The absorption spectra are, for example, measured in solution.

[2] = cyclization temperature Tcyc by Differential Thermal Analysis (DTA); details: for Tcyc: table, DTA; for cyclization temperature Tcyc: determined using DTA
Experimental: The cyclization temperature Tcyc is determined, for example, by means of Differential Thermal Analysis DTA. In the case of the preferred exothermic cyclization, it corresponds to the maximum of the rearrangement signal. The heating rate in the DTA measurements is, for example, 10° C. per minute. Under these conditions, the width at half height of the rearrangement signal is preferably less than 10° C., particularly preferably less than 7° C., very particularly preferably less than 5° C. For the purposes of the invention, the width at half height is the width of the signal at a height halfway between the base and the apex.
cyclization temperature Tcyc: 123° C. (determined using DTA, see description. This also applies to the other examples).

[3] = film formed by the dye (spin coating)
From the text: Apart from the abovementioned optical properties, the writeable information layer comprising light-absorbent organic substances has to have a substantially amorphous morphology to keep the noise signal during writing or reading as small as possible. For this reason, it is particularly preferred that crystallization of the light-absorbent substances be prevented in the application of the substances by spin coating from a solution, by vapour deposition and/or sublimation during subsequent covering with metallic or dielectric layers under reduced pressure.
(§1) A 2% strength by weight solution of the dye in 2,2,3,3-tetrafluoropropanol was prepared at room temperature. This solution was applied by means of spin coating to a fused silica substrate. The resulting thickness of the dye film was about 150 nm. This specimen was heated from 50° C. to 133° C. in a stream of helium at a mean heating rate of 3 K/min and subsequently cooled to 81° C. at a mean cooling rate of 1.4 K/min. During the heating and cooling phases, transmission spectra of the specimen in the wavelength range from 200 nm to 1700 nm were recorded. The change in the optical properties resulting from the ring-closure reaction can be observed by looking at the transmission spectra at different temperatures.

[4] = solubility in TFP (2,2,3,3-tetrafluoropropanol)
[5] = index of refraction of spin-coated dye film over temperature cycle
Experimental: as §1
The absorption band in the region of 450 nm obviously disappears virtually completely and leads to a change in the absorption properties which can be utilized in the wavelength range from 400 to 500 nm for the optical storage and reproduction of data, for example when a laser beam having an appropriate pulse duration and pulse energy heats the dye layer to above 133° C. Furthermore, each absorption also produces a dispersion of the index of refraction over the wavelength. This leads, in particular on the flanks of the absorption bands, to indices of refraction which are lower (short wavelength flank) or higher (long wavelength flank) than 1.4-1.6, which represents the usual range for colourless organic materials. For example, the index of refraction of the dye at 405 nm is 1.17 at the beginning of the temperature cycle and that at 515 nm is […]. After the temperature cycle, when the absorption band has disappeared virtually completely, the decolourized dye has an index of refraction in the range from 1.4 to 1.6 in the visible spectrum. This change in the index of refraction can likewise be utilized for the optical storage and reproduction of data, for example when a laser beam having an appropriate pulse duration and pulse energy heats the dye layer to above 133° C. […]

[6] = molar extinction coefficient at λmax

ε ([1]; table)	Δλmax ([1]; table)	λmax ([1]; table)	Tcyc [2]	absorption shift after cyclization Δλmax [1]	λmax (methanol) [1]	ε [1, 6]	film [3]	cyclization temperature Tcyc [2]	solubility [4]	index of refraction ([5]; after the temperature cycle (50 to 133° C.), visible spectrum, decolourized dye)	index of refraction ([5]; at 405 nm, beginning of the temperature cycle, about 150 nm film on fused silica)	index of refraction ([5]; at 515 nm, beginning of the temperature cycle)	SMILES
38 540	>|100|*	468	146 °C										N#Cc1c(/C=C\Nc2ccccc2)c2ccc(-n3nccn3)cc2oc1=O [Example 15]
37 520	−50	444	212 °C										CCC1Cc2cc(OC)ccc2/C(=C/C=C(\C#N)C(=O)OCCOC)N1 (centres unmarked) [Example 8]
				−72 nm	441 nm	36 910 l/mol cm	glass-like film	198 °C	> 2%				CCCCNC1=C(/C=C(/C#N)C(=O)OCC)CCC1 [Example 4]
26 670	−38	386	167 °C										COc1ccc(Nc2c(C=C(C#N)C#N)c(=O)oc3ccccc23)cc1OC [Example 16]
24 580	−50	422	81 °C										CCCCN/C=C\c1c(C(=O)OC(C)C)c(=O)oc2cc(OC)c(OC)cc12 [Example 13]
37 840	−70	440	174 °C										CCCCNC1=C(C=C(C#N)C#N)CCC1 [Example 18]
				−49 nm	447 nm	47 560 l/mol cm	glass-like film	123 °C	> 2%	1.4-1.6	1.17	2.17	CCOC(=O)/C(C#N)=C/C=C1\NCCc2cc(OC)c(OC)cc21 [Example 1]
33 200	−65	445	176 °C										CCOC(=O)/C(C#N)=C/C1=C(Nc2ccc(OC)cc2)CCCC1 [Example 17]
				−20 nm	359 nm	20 700 l/mol cm	glass-like film	206 °C	1%				CCc1ccc2c(NC(C)C)c(/C=C\C(=O)OC)c(=O)oc2c1 [Example 3]
63 160	−53	452	207 °C										CCOC(=O)/C(C#N)=C/C(C#N)=C1\NC(CC)Cc2cc(N(C)C)ccc21 (centres unmarked) [Example 9]
30 820	>|100|*	467	157 °C										Cc1ccc(N/C=C\c2c(C#N)c(=O)oc3ccccc23)cc1C [Example 11]
21 750	−15	368	175 °C										Cc1ccc(S(=O)(=O)OCc2c(/C=C\NC3CCCCC3)c3ccccc3oc2=O)cc1 [Example 14]
53 320	−46	440	124 °C										CCOC(=O)/C(C#N)=C/C=C1\NCCc2ccccc21 [Example 5]
32 140	>|100|*	463	161 °C										CCc1ccc(N/C=C(/Br)c2c(C#N)c(=O)[nH]c3ccc(CC)cc23)cc1 [Example 12]
